Source: US20240317683A1, “METHODS OF TREATING MOOD DISORDERS” (priority 2020, published 2024)
“Also recorded” adds a separate entry of the source. Structures can show the parent of a compound that is named as a salt.

Tests used:
C57BL/6 mice [1] = test: Conditioned place preference in mice; format: in vivo; conditions: SC, abuse liability model, vs. vehicle; hydrochloride
Protocol: (§1) Animals. Male C57BL/6 mice, 5-8 weeks of age, (body weight 25-30 g; Envigo, Indianapolis, IN, USA) were housed 5 per polycarbonate tub with soft bedding in a temperature-and humidity-controlled vivarium. Mice were maintained under a 12-h light/dark cycle with lights on at 06:00. Food and water were available ad libitum. Animals acclimated to the vivarium for 1 week prior to experimental manipulations.
Drugs and Drug Administration. Compound 4 was prepared as described above. All other compounds were commercially obtained. Compound 4 and saline vehicle were administered subcutaneously (SC), with doses calculated based on the HCl salt, while the positive control oxycodone was administered intraperitoneally (IP), with the dose calculated based on the HCl salt. […]
Conditioned Place Preference. Reward and/or aversion was assessed in conditioned place preference chambers (Model MED-CPP-3013; Med Associates, St. Albans, VT). […]
Group size was n=10 per treatment. […] Final drug preference was assessed in a 15-minute post-conditioning trial and was calculated by subtracting the time in the drug-paired compartment at baseline from the time in the drug-paired compartment post-conditioning, with positive values reflecting reward and negative values reflecting aversion.
For all trials, time spent in chambers as well as movement was quantified by infrared photobeam detectors and calculated by Med-PC IV software. […]

C57BL/6 mice [2] = test: Open field locomotor activity in mice; format: in vivo; conditions: SC
Protocol: as §1
Drugs and Drug Administration. Compound 4 was prepared as described above. Compound 4 and saline vehicle were administered subcutaneously (SC), with doses calculated based on the HCl salt. Normal saline was used as the vehicle. All compounds were administered at a volume of 10 mL/kg. Compound 4 or vehicle were administered immediately before the start of the recording session.
Locomotor Activity. Locomotor activity was measured in experimental cages (length×width x height: 560×560×330 mm) by an animal movement analysis system SCANET MV-40 ([…] Co., Ltd., Toyama, Japan). The cumulative activity was recorded for 30 minutes prior to drug administration to establish a baseline, and then animals were recorded for 60 minutes immediately after drug administration. Cages were cleaned between testing sessions.
Statistical Analysis. The total number of beam breaks were summed into 5-minute time bins. The data points shown are the mean ±standard error of the mean (SEM). […]

`CCN(C)CCc1c[nH]c2ccc(F)cc12` [Compound 4, N-ethyl-2-(5-fluoro-1H-indol-3-yl)-N-methylethan-1-amine hydrochloride] was tested, and the “preference for the drug-paired compartment” value (C57BL/6 mice [1]) was “did not induce any significant preference; also recorded: not significantly different from vehicle”, the “total locomotor activity in the open field” value (C57BL/6 mice [2]; 60 minutes after administration) was “dose-dependent decrease” and the “locomotor activity, highest dose group” value (C57BL/6 mice [2]; highest dose group) was “near complete reduction in activity”.
